#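 Grown in 96-well plates, cells were treated for 48 hours with each compound at five concentrations. Insufficient inhibition: endpoint recorded as highest concentration tested. TGI: concentration producing complete growth inhibition.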
# How the values were obtained:
# Test in all cases: NCI anticancer screen, dose series, 48 h
# 786-0 renal = system: 786-0 renal
# A549 NSCLC = system: A549 NSCLC
# ACHN renal = system: ACHN renal
# CAKI-1 renal = system: CAKI-1 renal
# CCRF-CEM leukemia = system: CCRF-CEM leukemia
# COLO 205 colon = system: COLO 205 colon
# EKVX NSCLC = system: EKVX NSCLC
# HCC-2998 colon = system: HCC-2998 colon
# HCT-116 colon = system: HCT-116 colon
# HCT-15 colon = system: HCT-15 colon
# HOP-62 NSCLC = system: HOP-62 NSCLC
# HS 578T breast = system: HS 578T breast
# HT29 colon = system: HT29 colon
# IGROV1 ovarian = system: IGROV1 ovarian
# K-562 leukemia = system: K-562 leukemia
# KM12 colon = system: KM12 colon
# LOX IMVI melanoma = system: LOX IMVI melanoma
# M14 melanoma = system: M14 melanoma
# MALME-3M melanoma = system: MALME-3M melanoma
# MCF7 breast = system: MCF7 breast
# MDA-MB-231 breast = system: MDA-MB-231 breast
# MDA-MB-435 = system: MDA-MB-435
# MDA-N = system: MDA-N
# MOLT-4 leukemia = system: MOLT-4 leukemia
# NCI-H226 lung = system: NCI-H226 lung
# NCI-H23 lung = system: NCI-H23 lung
# NCI-H460 lung = system: NCI-H460 lung
# NCI-H522 lung = system: NCI-H522 lung
# NCI/ADR-RES ovarian = system: NCI/ADR-RES ovarian
# OVCAR-3 ovarian = system: OVCAR-3 ovarian
# OVCAR-4 ovarian = system: OVCAR-4 ovarian
# OVCAR-5 ovarian = system: OVCAR-5 ovarian
# OVCAR-8 ovarian = system: OVCAR-8 ovarian
# PC-3 prostate = system: PC-3 prostate
# RPMI-8226 leukemia = system: RPMI-8226 leukemia
# RXF 393 renal = system: RXF 393 renal
# SF-268 CNS = system: SF-268 CNS
# SF-295 CNS = system: SF-295 CNS
# SF-539 CNS = system: SF-539 CNS
# SK-MEL-2 melanoma = system: SK-MEL-2 melanoma
# SK-MEL-28 melanoma = system: SK-MEL-28 melanoma
# SK-MEL-5 melanoma = system: SK-MEL-5 melanoma
# SK-OV-3 ovarian = system: SK-OV-3 ovarian
# SN12C renal = system: SN12C renal
# SNB-19 CNS = system: SNB-19 CNS
# SNB-75 CNS = system: SNB-75 CNS
# SR leukemia = system: SR leukemia
# SW-620 colon = system: SW-620 colon
# T-47D breast = system: T-47D breast
# TK-10 renal = system: TK-10 renal
# U251 CNS = system: U251 CNS
# UACC-257 melanoma = system: UACC-257 melanoma
# UACC-62 melanoma = system: UACC-62 melanoma
# UO-31 renal = system: UO-31 renal
# A498 renal = system: A498 renal
# BT-549 breast = system: BT-549 breast
# DU-145 prostate = system: DU-145 prostate
# HOP-92 NSCLC = system: HOP-92 NSCLC
compound,measurement,setting,value
O=c1c2cn[nH]c2nc2scc(-c3ccc(Cl)cc3)n12,TGI,786-0 renal,> 100 µM
same,TGI,A549 NSCLC,> 100 µM
same,TGI,ACHN renal,> 100 µM
same,TGI,CAKI-1 renal,> 100 µM
same,TGI,CCRF-CEM leukemia,> 100 µM
same,TGI,COLO 205 colon,> 100 µM
same,TGI,EKVX NSCLC,> 100 µM
same,TGI,HCC-2998 colon,> 100 µM
same,TGI,HCT-116 colon,> 100 µM
same,TGI,HCT-15 colon,> 100 µM
same,TGI,HOP-62 NSCLC,> 100 µM
same,TGI,HS 578T breast,> 100 µM
same,TGI,HT29 colon,> 100 µM
same,TGI,IGROV1 ovarian,> 100 µM
same,TGI,K-562 leukemia,> 100 µM
same,TGI,KM12 colon,> 100 µM
same,TGI,LOX IMVI melanoma,> 100 µM
same,TGI,M14 melanoma,> 100 µM
same,TGI,MALME-3M melanoma,> 100 µM
same,TGI,MCF7 breast,> 100 µM
same,TGI,MDA-MB-231 breast,> 100 µM
same,TGI,MDA-MB-435,> 100 µM
same,TGI,MDA-N,> 100 µM
same,TGI,MOLT-4 leukemia,> 100 µM
same,TGI,NCI-H226 lung,> 100 µM
same,TGI,NCI-H23 lung,> 100 µM
same,TGI,NCI-H460 lung,> 100 µM
same,TGI,NCI-H522 lung,> 100 µM
same,TGI,NCI/ADR-RES ovarian,> 100 µM
same,TGI,OVCAR-3 ovarian,> 100 µM
same,TGI,OVCAR-4 ovarian,> 100 µM
same,TGI,OVCAR-5 ovarian,> 100 µM
same,TGI,OVCAR-8 ovarian,> 100 µM
same,TGI,PC-3 prostate,> 100 µM
same,TGI,RPMI-8226 leukemia,> 100 µM
same,TGI,RXF 393 renal,> 100 µM
same,TGI,SF-268 CNS,> 100 µM
same,TGI,SF-295 CNS,> 100 µM
same,TGI,SF-539 CNS,> 100 µM
same,TGI,SK-MEL-2 melanoma,> 100 µM
same,TGI,SK-MEL-28 melanoma,> 100 µM
same,TGI,SK-MEL-5 melanoma,> 100 µM
same,TGI,SK-OV-3 ovarian,> 100 µM
same,TGI,SN12C renal,> 100 µM
same,TGI,SNB-19 CNS,> 100 µM
same,TGI,SNB-75 CNS,> 100 µM
same,TGI,SR leukemia,> 100 µM
same,TGI,SW-620 colon,> 100 µM
same,TGI,T-47D breast,> 100 µM
same,TGI,TK-10 renal,> 100 µM
same,TGI,U251 CNS,> 100 µM
same,TGI,UACC-257 melanoma,> 100 µM
same,TGI,UACC-62 melanoma,> 100 µM
same,TGI,UO-31 renal,> 100 µM
COC(=O)C1=C(CCCCO[Si](C)(C)C(C)(C)C)NC(=O)N2[C@@H](CCOCc3ccccc3)CC[C@H]12,TGI,786-0 renal,30.9 µM
same,TGI,A498 renal,> 100 µM
same,TGI,A549 NSCLC,77.7 µM
same,TGI,ACHN renal,> 100 µM
same,TGI,BT-549 breast,51 µM
same,TGI,CAKI-1 renal,92.9 µM
same,TGI,CCRF-CEM leukemia,51.9 µM
same,TGI,COLO 205 colon,32.4 µM
same,TGI,DU-145 prostate,> 100 µM
same,TGI,EKVX NSCLC,> 100 µM
same,TGI,HCC-2998 colon,78.9 µM
same,TGI,HCT-116 colon,24.6 µM
same,TGI,HCT-15 colon,43.9 µM
same,TGI,HOP-62 NSCLC,65.2 µM
same,TGI,HOP-92 NSCLC,34.4 µM
same,TGI,HT29 colon,35.1 µM
same,TGI,K-562 leukemia,> 100 µM
same,TGI,KM12 colon,44.2 µM
same,TGI,M14 melanoma,79.4 µM
same,TGI,MALME-3M melanoma,47.3 µM
same,TGI,MCF7 breast,> 100 µM
same,TGI,MDA-MB-231 breast,52.1 µM
same,TGI,MDA-MB-435,> 100 µM
same,TGI,MDA-N,49.9 µM
same,TGI,MOLT-4 leukemia,> 100 µM
same,TGI,NCI-H23 lung,67.9 µM
same,TGI,NCI-H460 lung,> 100 µM
same,TGI,NCI-H522 lung,48.2 µM
same,TGI,NCI/ADR-RES ovarian,42.4 µM
same,TGI,OVCAR-3 ovarian,30.1 µM
same,TGI,OVCAR-4 ovarian,> 100 µM
same,TGI,OVCAR-5 ovarian,> 100 µM
same,TGI,PC-3 prostate,75.8 µM
same,TGI,RPMI-8226 leukemia,> 100 µM
same,TGI,SF-268 CNS,> 100 µM
same,TGI,SF-295 CNS,> 100 µM
same,TGI,SK-MEL-2 melanoma,35.8 µM
same,TGI,SK-MEL-28 melanoma,> 100 µM
same,TGI,SK-MEL-5 melanoma,22.2 µM
same,TGI,SK-OV-3 ovarian,> 100 µM
same,TGI,SN12C renal,32.7 µM
same,TGI,SNB-19 CNS,> 100 µM
same,TGI,SNB-75 CNS,> 100 µM
same,TGI,T-47D breast,> 100 µM
same,TGI,TK-10 renal,> 100 µM
same,TGI,U251 CNS,28.2 µM
same,TGI,UACC-257 melanoma,> 100 µM
same,TGI,UACC-62 melanoma,> 100 µM
same,TGI,UO-31 renal,56.2 µM
CCOC(=O)C1(C/C=C\CBr)CCCCCCCCCCC1=O (centres undefined),TGI,786-0 renal,> 53 µM
same,TGI,A498 renal,29.1 µM
same,TGI,A549 NSCLC,> 53 µM
same,TGI,ACHN renal,32 µM
same,TGI,BT-549 breast,31.7 µM
same,TGI,CAKI-1 renal,27.2 µM
same,TGI,COLO 205 colon,33.7 µM
same,TGI,DU-145 prostate,31.9 µM
same,TGI,EKVX NSCLC,34.4 µM
same,TGI,HCC-2998 colon,30.2 µM
same,TGI,HCT-116 colon,> 54.2 µM
same,TGI,HCT-15 colon,32.8 µM
same,TGI,HOP-62 NSCLC,34.7 µM
same,TGI,HS 578T breast,43.2 µM
same,TGI,HT29 colon,34.3 µM
same,TGI,IGROV1 ovarian,11.5 µM
same,TGI,K-562 leukemia,20.2 µM
same,TGI,KM12 colon,28.8 µM
same,TGI,LOX IMVI melanoma,1.66 µM
same,TGI,M14 melanoma,55 µM
same,TGI,MALME-3M melanoma,19.1 µM
same,TGI,MCF7 breast,42.3 µM
same,TGI,MDA-MB-231 breast,17.8 µM
same,TGI,MDA-MB-435,29.8 µM
same,TGI,MDA-N,38.4 µM
same,TGI,MOLT-4 leukemia,> 27 µM
same,TGI,NCI-H226 lung,16.6 µM
same,TGI,NCI-H23 lung,26.2 µM
same,TGI,NCI-H460 lung,33 µM
same,TGI,NCI-H522 lung,1.04 µM
same,TGI,NCI/ADR-RES ovarian,39.2 µM
same,TGI,OVCAR-3 ovarian,9.75 µM
same,TGI,OVCAR-4 ovarian,27.4 µM
same,TGI,OVCAR-5 ovarian,35.2 µM
same,TGI,OVCAR-8 ovarian,31.4 µM
same,TGI,PC-3 prostate,25.1 µM
same,TGI,RPMI-8226 leukemia,9.02 µM
same,TGI,RXF 393 renal,25.4 µM
same,TGI,SF-268 CNS,27.6 µM
same,TGI,SF-295 CNS,31.7 µM
same,TGI,SF-539 CNS,14.8 µM
same,TGI,SK-MEL-2 melanoma,36.5 µM
same,TGI,SK-MEL-28 melanoma,30.7 µM
same,TGI,SK-MEL-5 melanoma,26.5 µM
same,TGI,SK-OV-3 ovarian,31.2 µM
same,TGI,SN12C renal,28.4 µM
same,TGI,SNB-19 CNS,36.6 µM
same,TGI,SNB-75 CNS,26.9 µM
same,TGI,SW-620 colon,30.1 µM
same,TGI,T-47D breast,29.7 µM
same,TGI,TK-10 renal,22.8 µM
same,TGI,U251 CNS,26.1 µM
same,TGI,UACC-257 melanoma,31.3 µM
same,TGI,UACC-62 melanoma,31.9 µM
same,TGI,UO-31 renal,15.2 µM
CC(=O)N1N(c2ccc([N+](=O)[O-])cc2)C(=O)C1(C)C,TGI,786-0 renal,36.6 µM
same,TGI,A498 renal,> 100 µM
same,TGI,ACHN renal,41.5 µM
same,TGI,BT-549 breast,24.2 µM
same,TGI,CCRF-CEM leukemia,33.3 µM
same,TGI,COLO 205 colon,30.5 µM
same,TGI,DU-145 prostate,> 100 µM
same,TGI,EKVX NSCLC,34.5 µM
same,TGI,HCC-2998 colon,29.7 µM
same,TGI,HCT-15 colon,34.5 µM
same,TGI,HOP-62 NSCLC,40.4 µM
same,TGI,HS 578T breast,> 100 µM
same,TGI,HT29 colon,44.8 µM
same,TGI,IGROV1 ovarian,44.8 µM
same,TGI,K-562 leukemia,60.5 µM
same,TGI,KM12 colon,35.4 µM
same,TGI,LOX IMVI melanoma,26.5 µM
same,TGI,M14 melanoma,23.7 µM
same,TGI,MALME-3M melanoma,56 µM
same,TGI,MCF7 breast,42.5 µM
same,TGI,MDA-MB-231 breast,45.7 µM
same,TGI,MDA-MB-435,63.1 µM
same,TGI,MDA-N,> 100 µM
same,TGI,MOLT-4 leukemia,43.4 µM
same,TGI,NCI-H226 lung,37.6 µM
same,TGI,NCI-H23 lung,37.8 µM
same,TGI,NCI-H460 lung,> 100 µM
same,TGI,NCI-H522 lung,27.2 µM
same,TGI,NCI/ADR-RES ovarian,89.9 µM
same,TGI,OVCAR-3 ovarian,40.5 µM
same,TGI,OVCAR-4 ovarian,35 µM
same,TGI,OVCAR-5 ovarian,44.3 µM
same,TGI,OVCAR-8 ovarian,59 µM
same,TGI,PC-3 prostate,32 µM
same,TGI,RXF 393 renal,32.3 µM
same,TGI,SF-268 CNS,87.1 µM
same,TGI,SF-295 CNS,> 100 µM
same,TGI,SF-539 CNS,49.7 µM
same,TGI,SK-MEL-2 melanoma,37.4 µM
same,TGI,SK-MEL-28 melanoma,37.4 µM
same,TGI,SK-MEL-5 melanoma,30.8 µM
same,TGI,SK-OV-3 ovarian,> 100 µM
same,TGI,SN12C renal,32.5 µM
same,TGI,SNB-19 CNS,> 100 µM
same,TGI,SNB-75 CNS,37.7 µM
same,TGI,SW-620 colon,29.2 µM
same,TGI,T-47D breast,> 100 µM
same,TGI,TK-10 renal,36.2 µM
same,TGI,U251 CNS,52.8 µM
same,TGI,UACC-62 melanoma,42.3 µM
same,TGI,UO-31 renal,32.4 µM

# From PubChem BioAssay (NCI)
